Results from US11840523B2, “IRE1α inhibitors and uses thereof” (The Regents of the University of California, priority 2020, dated 2023).
Blank lines part the entries; values can stand above or below the compound they belong to.

Tests used:
[1] = molecular target: dpIRE1α* (Homo sapiens (Human), UniProt O75460); assay: In vitro Kdimer assay (XBP1-mini substrate cleavage) with dpIRE1α*; format: biochemical; details: FIG. 4; for fold lowering of Kdimer of dpIRE1α* when kinase domain complexed to ligand: versus apo dpIRE1α*, FIG. 1D
Chain of dpIRE1α* (O75460 547-977): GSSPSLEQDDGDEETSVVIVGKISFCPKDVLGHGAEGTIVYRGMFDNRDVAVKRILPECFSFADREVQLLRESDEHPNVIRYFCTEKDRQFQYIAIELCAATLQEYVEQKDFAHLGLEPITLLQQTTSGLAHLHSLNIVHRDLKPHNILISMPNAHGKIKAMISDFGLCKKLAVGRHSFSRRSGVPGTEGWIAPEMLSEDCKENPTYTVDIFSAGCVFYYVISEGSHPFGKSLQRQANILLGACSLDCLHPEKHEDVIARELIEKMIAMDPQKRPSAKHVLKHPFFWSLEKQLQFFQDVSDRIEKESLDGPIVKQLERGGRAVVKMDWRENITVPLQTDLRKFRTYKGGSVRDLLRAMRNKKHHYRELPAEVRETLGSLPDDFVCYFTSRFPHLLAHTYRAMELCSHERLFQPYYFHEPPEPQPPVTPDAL
Source text: (§1) In order to better understand how to achieve an optimal intermediate RNase activation state through engagement of IRE1α's kinase domain, we first established a quantitative in vitro framework for characterizing how ATP-binding site occupancy influences RNase activity. […] This dimeric state-commonly referred to as the “back-to-back” dimer—is characterized by an extensive interface between the kinase and RNase domains of each IRE1α protomer; this dimeric state can be promoted through mass action as IRE1α concentration is raised. […] Furthermore, ligands that occupy the ATP-binding site of the kinase domain can also stimulate IRE1α's RNase activity by promoting dimer formation. We measured the ability of a purified, recombinant kinase/RNase domain construct of IRE1α-called IRE1α* to cleave a FRET-quenched XBP1 RNA mini-substrate as a function of IRE1α* concentration, in order to provide a quantitative metric of IRE1α's dimer affinity (Kdimer) (FIG. 1). […]
IRE1α* or dPIRE1α* was titrated from either 2 μM or 4 μM in two-fold serial dilutions in assay buffer (20 mM Tris, 50 mM sodium chloride, 1 mM MgCl2, 2 mM DTT, 0.05% Triton X-100 (v/v), pH 7.5) and incubated with 50 μM inhibitor for 30 minutes at room temperature. […] Fluorescence was detected on a Perkin Elmer Envision Microplate Reader at excitation and emission wavelengths of 650 nm and 665 nm. Reaction process was monitored real time in 10-second intervals for at least 30 minutes. Initial rates of XBP1-cleavage were determined for each respective IRE1α* of dpIRE1α* concentration. Specific activity was then determined by dividing rate (RFU/s) by the respective IRE1α* of dpIRE1α* used (RFU/s*[IRE1α]). Kdimer values were determined by fitting these values using the non-linear regression ‘one-site total’ binding parameter in GraphPad Prism analysis software.

[2] = molecular target: T1, IRE1α (Homo sapiens (Human), UniProt O75460); assay: In vitro Kdimer assay (XBP1-mini substrate cleavage) with IRE1α*; format: biochemical; details: ligand-bound IRE1α*; FIG. 1E, FIG. 5
T1 sequence (O75460 547-977): as above
Source text: as §1
IRE1α* or dPIRE1α* was titrated from either 2 μM or 4 μM in two-fold serial dilutions in assay buffer (20 mM Tris, 50 mM sodium chloride, 1 mM MgCl2, 2 mM DTT, 0.05% Triton X-100 (v/v), pH 7.5) and incubated with 50 μM inhibitor for 30 minutes at room temperature. […] Fluorescence was detected on a Perkin Elmer Envision Microplate Reader at excitation and emission wavelengths of 650 nm and 665 nm. […]

[3] = test system: XBP1 splicing in INS-1 cells; assay: XBP1 splicing in ER-stressed INS-1 cells; format: cell-based, rat; details: INS-1 cells treated with brefeldin A or thapsigargin; FIG. 6
Procedure: INS-1s (rat insulinoma beta cells) were grown in RPMI, 10% FBS buffer (v/v), 1 mM sodium pyruvate, 10 mM HEPES, 2 mM glutamine and 50 μM β-mercaptoethanol on Poly-D-Lysine coated tissue culture flasks. IRE1α (murine) was cloned into a pcDNA5/FRT/TO. INS-1 FRT/TO cells were grown following the protocol above. INS-1 FRT/TO cells were transfected with 2 μg IRE1α-pcDNA5/FRT/TO and 2 μg pOG44 using Lipofectamine 2000 (Thermo Fisher). Cell media was exchanged the next day and cells were allowed grow for another day before passaging. Selection was performed using 50 μg/mL Hygromycin-B (Thermo Fisher) over about two weeks until all un-transfected cells have died and colonies have appeared in transfected cells. Stably integrated cells were maintained in RPMI, 10% FBS buffer (v/v), 1 mM sodium pyruvate, 10 mM HEPES, 2 mM glutamine and 50 μM β-mercaptoethanol, […] Hygromycin-B. HEK293 cells were grown in DMEM High Glucose media (Gibco) supplemented with 10% FBS. […]
INS-1 or isogenic IRE1α-overexpressing INS-1 cells were plated onto Poly-D-Lysine coated tissue culture plate and grown for 48 hrs. […] PCR fragments were then digested by PstI, resolved on 3% agarose gels, stained with EtBr and quantified by densitometry using ImageJ (NIH). For standard mRNA detection, generally […] total RNA was reverse transcribed using the QuantiTect Reverse Transcription Kit (QIAGEN). […]

[4] = molecular target: T1, IRE1α; assay: In vitro kinase activity assay (IC50 IRE1α kinase inhibition); format: biochemical
Procedure: A construct containing the cytosolic kinase and RNase domains of human IRE1α (residues 547-977, IRE1α*) was expressed in SF9 insect cells by using the Bac-to-Bac baculovirus expression system (Invitrogen) with a His6 tag at the N-terminus and purified with a nickel-nitriloacetic acid (Qiagen) column. To generate dP-IRE1α*, we removed basal phosphorylation sites by incubating IRE1α* with λ-PPase (New England Biolabs) at a molar ratio of 5:1 (IRE1α*: X-PPase) in 50 mM HEPES pH 7.5, 100 mM NaCl, 1 mM MnCl2, 2 mM dithiothreitol (DTT) and 0.01% Brij 35 detergent (v/v) overnight at 4° C. Dephosphorylation was verified through western blotting using a universal phospho-protein detection agent (biotin-pIMAGO (Tymora Analytical Operations, Cat. No.: FL800) and imaged using a streptavidin-linked fluorophore.
In Vitro Kinase Activity Assay
Inhibitors (initial concentration of 10 or 60 μM, three-fold serial dilutions) were incubated with IRE1α* in cleavage buffer (20 mM HEPES, 0.05% Triton X-100 (v/v), 50 mM KCl, 1 mM MgCl2, 1 mM DTT, pH 7.5) for 30 min, followed by incubation with 10 μCi [γ^32P] ATP(3,000 Ci mmol^−1, PerkinElmer) at 23° C. for 3 hours. Samples were then spotted onto glass fiber paper (Easytab-C Glass Fiber Filter Paper, Perkin Elmer) and washed in twice with 0.5% phosphoric acid and autoradiographed using a GE Typhoon FLA 9000 Imager. Blots were quantitated using ImageQuant software. The percent inhibition was quantified by setting the background (no kinase well) as 0 and standardizing to IRE1α* without compound treatment (IRE1α*+DMSO). Dose-response curves were fit using “one-site fit logIC50” parameter using GraphPad Prism analysis software.
Compound Characterization (IC50 IRE1α Kinase Inhibition)

- fold lowering of Kdimer of dpIRE1α* when kinase domain complexed to ligand [1]: over 80 fold
SMILES: O=C(Nc1c[nH]nc1-c1nc2ccc(CN3CCOCC3)cc2[nH]1)NC1CC1 [AT9283]

- fold lowering of Kdimer of dpIRE1α* when kinase domain complexed to ligand [1]: over 80 fold
SMILES: NC(=O)Nc1cc(-c2cccc(F)c2)sc1C(=O)N[C@H]1CCCNC1 [AZD7762]
- formation of the RNase active dimer of dpIRE1α* ([1]; dpIRE1α*-ligand complex): promotes the formation of the RNase active dimer
- formation of RNase active dimers of IRE1α* [2]: promotes the formation of the RNase active dimer

SMILES: Cc1ccc2c(NS(=O)(=O)c3ccccc3Cl)cccc2c1Oc1ncccc1-c1ccnc(N[C@H]2CCCNC2)n1 [KIRA8]
- XBP1 splicing [3]: completely suppresses XBP1 splicing
- formation of RNase active dimers of IRE1α* [2]: unable to form RNase active dimers at any concentration tested

- IC50 [4]: 5.1 nM
SMILES: CCc1cc(-c2ccc(NS(=O)(=O)c3ccccc3Cl)nc2OC)cc2cnc(N[C@H]3CC[C@H](N)CC3)nc12 [LBC-0000405]

- IC50 [4]: 7.4 nM
SMILES: CCc1cc(-c2ccc(NS(=O)(=O)CCC(F)(F)F)nc2OC)cc2cnc(N[C@H]3CC[C@H](N)CC3)nc12 [LBC-0000406, N-(5-(2-(((1r,4r)-4-aminocyclohexyl)amino)-8-ethylquinazolin-6-yl)-6-methoxypyridin-2-yl)-3,3,3-trifluoropropane-1-sulfonamide]

- IC50 [4]: 7.5 nM
SMILES: CCc1cc(-c2ccc(NS(=O)(=O)CC(F)(F)F)nc2OC)cc2cnc(N[C@H]3CC[C@H](N)CC3)nc12 [LBC-0000407, N-(5-(2-(((1r,4r)-4-aminocyclohexyl)amino)-8-ethylquinazolin-6-yl)-6-methoxypyridin-2-yl)-2,2,2-trifluoroethane-1-sulfonamide]

- IC50 [4]: 5.1 nM
SMILES: CCc1cc(-c2ccc(NS(=O)(=O)C3CC3)nc2OC)cc2cnc(N[C@H]3CC[C@H](N)CC3)nc12 [LBC-0000408, N-(5-(2-(((1r,4r)-4-aminocyclohexyl)amino)-8-ethylquinazolin-6-yl)-6-methoxypyridin-2-yl) cyclopropane sulfonamide]
